{
  "source": "patent US12064444B2",
  "about": "“Application of tannic acid in preparation of medicament against respiratory viruses” (priority 2020, dated 2024)",
  "key": {"[1]": {"assay": "in vitro", "settings": "dog", "protocol": "(§1) 2. […] The maximum non-toxic concentration (TC0) of the medicament was taken as the minimum dilution times of the medicament without cytopathic changes, and the median toxic concentration (TC50) of the medicament was calculated by the Reed-Muench formula. 3. Experimental results\n(§2) • (1) Medicaments: same as Embodiment 5; • (2) Other experimental materials were the same as those in Embodiment 3. 2. Experimental procedure: refer to Embodiment 3. 3. Experimental results"}, "[2]": {"system": "Influenza A H1N1 virus", "assay": "microbe, parasite or virus in culture", "settings": "H1N1, MDCK"}, "[3]": {"system": "African green monkey kidney cells (Vero-E6 cells)", "assay": "Toxicity to African green monkey kidney cells (Vero-E6), CCK-8, 48 hours", "settings": "Vero-E6 cells; for TC0 (maximum non-toxic concentration): 48 hours, CCK-8", "from_the_text": "(§3) • (1) Medicaments: experimental group, tannic acid; control group, Remdesivir (purchased from Shanghai TopScience Technology Co., Ltd.); • (2) Cell line: African green monkey kidney cells (Vero-E6 cells); • (3) Others: MEM medium; 96-well culture plate. 2. […] 3. Experimental results\n(§4) • (1) Medicaments: in the experimental group, tannic acid was mixed with catechin, resveratrol, and zinc gluconate according to a mass ratio of 1:1 to prepare into three pharmaceutical compositions; in the control group, Remdesivir (purchased from Shanghai TopScience Technology Co., Ltd.); • (2) Other experimental materials were the same as those in Embodiment 1. 2. Experimental steps: refer to Embodiment 1. 3. Experimental results"}, "[4]": {"assay": "Toxicity to African green monkey kidney cells (Vero-E6), CCK-8, 48 hours", "settings": "African green monkey", "from_the_text": "as §3, §4"}, "[5]": {"system": "SARS-CoV-2 virus", "settings": "SARS-CoV-2, Vero-E6 cells; […]"}, "[6]": {"system": "SARS-CoV-2 virus", "assay": "microbe, parasite or virus in culture"}, "[7]": {"system": "canine kidney epithelial cells (MDCK cells)", "assay": "Toxicity to canine kidney epithelial cells (MDCK), cytopathic changes", "settings": "MDCK cells, cytopathic changes", "protocol": "as §1, §2"}, "[8]": {"settings": "Severe acute respiratory syndrome coronavirus 2, Vero C1008, 48 h, read-out: IC50 (median inhibitory concentration)"}},
  "note": "Where two headings read alike, the source gives them in different places.",
  "data": [
    {"smiles": "NC(=O)c1ncn([C@@H]2O[C@H](CO)[C@@H](O)[C@H]2O)n1", "note": "[Ribavirin]", "values": [
      {"measurement": "CC50", "setting": "[1]", "value": 1310, "unit": "µM"},
      {"measurement": "IC50", "setting": "[2]; 48 h, read-out: IC50 (median inhibitory concentration)", "value": "22.6 ± 0.04", "unit": "µM"},
      {"measurement": "IC50", "setting": "[2]; Influenza A H1N1, MDCK cells, compositions, mass ratio 1:1", "value": "5.52 ± 0.03", "unit": "µg/mL"}
    ]},
    {"smiles": "CCC(CC)COC(=O)[C@H](C)N[P@](=O)(OC[C@H]1O[C@@](C#N)(c2ccc3c(N)ncnn23)[C@H](O)[C@@H]1O)Oc1ccccc1", "note": "[Remdesivir]", "values": [
      {"measurement": "TC0 (maximum non-toxic concentration)", "setting": "[3]", "value": 52.8, "unit": "µM"},
      {"measurement": "TC0", "setting": "[3]; compositions, mass ratio 1:1", "value": 31.816, "unit": "µg/mL"},
      {"measurement": "TC50", "setting": "[3]; compositions, mass ratio 1:1", "value": 63.633, "unit": "µg/mL"},
      {"measurement": "CC50 at 48 h", "setting": "[4]", "value": 106, "unit": "µM"},
      {"measurement": "SI", "setting": "[5]", "value": 162.21},
      {"measurement": "IC50", "setting": "[6]; Severe acute respiratory syndrome coronavirus 2, Vero C1008", "value": "0.392 ± 0.003", "unit": "µg/mL"},
      {"measurement": "IC50", "setting": "[6]; [8]", "value": "0.651 ± 0.013", "unit": "µM"}
    ]},
    {"smiles": "O=C(OC[C@H]1O[C@@H](OC(=O)c2cc(O)c(O)c(OC(=O)c3cc(O)c(O)c(O)c3)c2)[C@H](OC(=O)c2cc(O)c(O)c(OC(=O)c3cc(O)c(O)c(O)c3)c2)[C@@H](OC(=O)c2cc(O)c(O)c(OC(=O)c3cc(O)c(O)c(O)c3)c2)[C@@H]1OC(=O)c1cc(O)c(O)c(OC(=O)c2cc(O)c(O)c(O)c2)c1)c1cc(O)c(O)c(OC(=O)c2cc(O)c(O)c(O)c2)c1", "note": "[Tannic acid, tannic acid]", "values": [
      {"measurement": "TC0 (maximum non-toxic concentration)", "setting": "[3]", "value": 11.8, "unit": "µM"},
      {"measurement": "CC50 at 48 h", "setting": "[4]", "value": 23.5, "unit": "µM"},
      {"measurement": "CC50", "setting": "[1]", "value": 752, "unit": "µM"},
      {"measurement": "TC0 (maximum non-toxic concentration)", "setting": "[7]", "value": 376.21, "unit": "µM"},
      {"measurement": "IC50", "setting": "[6]; [8]", "value": 0.0032, "unit": "µM"}
    ]}
  ]
}
